Data: ChEMBL document CHEMBL1130907, “The novel cyclopropapyrroloindole(CPI) bisalkylators bearing 3,3'-(1,4-phenylene)diacryloyl group as a linker” (Bioorg Med Chem Lett, 1998)
Values after ≈ are worked out from the molar mass of the structure shown.

How the values were obtained:
[1] = Ratio of MTD, maximum dose with in 10% body weight loss (ug/Kg) to that of TGI50 was reported; format: functional
Mus musculus = assay: In vivo antitumor activity against colon 26 murine adenocarcinoma in male CDF1 mice and was expressed as 50% tumor growth inhibition.; format: functional
HeLa [2] = assay: In vitro cytotoxicity against HeLaS3 human uterine cervix carcinoma; format: functional, cell-based
HeLa [3] = assay: In vitro cytotoxicity against HeLaS3 human uterine cervix carcinoma.; format: functional, cell-based
[4] = Homo sapiens, HeLa, read-out: IC50

Row | Structure (SMILES) | Ratio [1] | TGI50 (Mus musculus) [µg/kg] | IC50 (HeLa [2]; [4]) [ng/mL] | IC50 (HeLa [2]; hela) [ng/mL] | IC50 (HeLa [3]) [ng/mL]
1 | Cc1c[nH]c2c(O)cc3c(c12)[C@H](CCl)CN3C(=O)c1cc2cc(NC(=O)Nc3ccc4[nH]c(C(=O)N5C[C@@H](CCl)c6c5cc(O)c5[nH]cc(C)c65)cc4c3)ccc2[nH]1 [BIZELESIN] | 8.4 | 3.72 |  |  | 
2 | COC(=O)c1cc2c3c(cc(O)c2[nH]1)N(C(=O)/C=C/c1ccc(/C=C/C(=O)N2C[C@H](CCl)c4c2cc(O)c2[nH]c(C(=O)OC)cc42)cc1)C[C@H]3CCl |  | 100 | 0.023 (≈ 0.0309 nM) |  | 
3 | Cc1c[nH]c2c(O)cc3c(c12)[C@H](CCl)CN3C(=O)/C=C/c1ccc(/C=C/C(=O)N2C[C@H](CCl)c3c2cc(O)c2[nH]cc(C)c32)cc1 | 5.5 | 1.41 |  | 0.0013 (≈ 0.00198 nM) | 
4 | COC(=O)c1c(C(F)(F)F)[nH]c2c(O)cc3c(c12)[C@H](CCl)CN3C(=O)c1cc2cc(-c3ccc4[nH]c(C(=O)N5C[C@@H](CCl)c6c5cc(O)c5[nH]c(C(F)(F)F)c(C(=O)OC)c65)cc4c3)ccc2[nH]1 | 3.3 | 0.3 |  | 0.0049 (≈ 0.00499 nM) | 
5 | COC(=O)c1c(C)[nH]c2c(O)cc3c(c12)[C@H](CCl)CN3C(=O)/C=C/c1ccc(/C=C/C(=O)N2C[C@H](CCl)c3c2cc(O)c2[nH]c(C)c(C(=O)OC)c32)cc1 | 8.8 | 0.891 |  |  | 0.00046 (≈ 0.000596 nM)
6 | O=C(/C=C/c1ccc(/C=C/C(=O)N2C[C@H](CCl)c3c2cc(O)c2[nH]c4ccccc4c32)cc1)N1C[C@@H](CCl)c2c1cc(O)c1[nH]c3ccccc3c21 | 8.2 | 3.8 | 0.072 (≈ 0.0989 nM) |  | 
7 | COC(=O)c1c(C(F)(F)F)[nH]c2c(O)cc3c(c12)[C@H](CCl)CN3C(=O)/C=C/c1ccc(/C=C/C(=O)N2C[C@H](CCl)c3c2cc(O)c2[nH]c(C(F)(F)F)c(C(=O)OC)c32)cc1 | 30.7 | 0.254 |  | 0.0027 (≈ 0.00307 nM) | 
8 | COC(=O)c1c[nH]c2c(O)cc3c(c12)[C@H](CCl)CN3C(=O)/C=C/c1ccc(/C=C/C(=O)N2C[C@H](CCl)c3c2cc(O)c2[nH]cc(C(=O)OC)c32)cc1 | 10.3 | 0.757 |  |  | 0.00035 (≈ 0.000471 nM)
